Paper PMC6274368 (Molecules, 2016)

Columns and labels:
human URAT1 = target: T1, human URAT1 (Homo sapiens, UniProt Q96S37); conditions: for Fold more potent than parent lesinurad (URAT1 inhibition): ratio of IC50 vs lesinurad, in vitro URAT1 inhibitory assay
T1 sequence (Q96S37 1-553): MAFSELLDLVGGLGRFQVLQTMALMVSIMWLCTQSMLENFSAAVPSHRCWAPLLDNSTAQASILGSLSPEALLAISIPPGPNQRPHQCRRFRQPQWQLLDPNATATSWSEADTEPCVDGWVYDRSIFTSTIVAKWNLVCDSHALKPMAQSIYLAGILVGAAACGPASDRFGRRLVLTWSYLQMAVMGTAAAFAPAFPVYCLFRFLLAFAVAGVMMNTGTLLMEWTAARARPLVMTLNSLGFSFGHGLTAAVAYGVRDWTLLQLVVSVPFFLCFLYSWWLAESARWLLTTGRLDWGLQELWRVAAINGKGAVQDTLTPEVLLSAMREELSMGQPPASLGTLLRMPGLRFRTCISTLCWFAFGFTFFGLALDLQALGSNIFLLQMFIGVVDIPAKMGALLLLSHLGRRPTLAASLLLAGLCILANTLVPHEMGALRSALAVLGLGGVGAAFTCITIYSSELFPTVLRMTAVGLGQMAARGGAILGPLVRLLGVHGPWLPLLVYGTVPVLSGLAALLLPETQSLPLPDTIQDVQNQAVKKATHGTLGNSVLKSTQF
Description: After 48 h, when the HEK293-URAT1 cells were grown to confluence, the cells were treated by 0.25% trypsin for 1–2 min. Thereafter, the digested cells were diluted to a density of 1.5 × 10^5/mL and inoculated into the 24-well cell culture plates for about 48 h. The HEK293-URAT1 cells were pre-incubated for 10 min in HBSS (Cl^− free) and then incubated in the uptake solution (PBS) containing 5 μM [8-^14C]uric acid (2 μCi/mL) with or without the tested compounds (at a series of concentrations). […] After that, 500 μL of cell lysis was transferred to scintillation vials and solubilized with scintillation solution. The radioactivity in the cells was measured by a liquid scintillation counter (PerkinElmer, Waltham, MA, USA).

Structure (SMILES)	melting point	IC50 (human URAT1)	Fold more potent than parent lesinurad (URAT1 inhibition) (human URAT1)
O=C([O-])CCc1nncn1-c1ccc(C2CC2)c2ccccc12.[Na+] [Compound 1a, Sodium 3-(4-(4-cyclopropylnaphth-1-yl)-4H-1,2,4-triazol-3-yl)propionate]	140 °C (dec.)	> 100 µM	–
O=C([O-])CCc1nnc(Cl)n1-c1ccc(C2CC2)c2ccccc12.[Na+] [Compound 1b, Sodium 3-(5-chloro-4-(4-cyclopropylnaphth-1-yl)-4H-1,2,4-triazol-3-yl)propionate]	135 °C (dec.)	6.3 ± 0.74 µM	–
O=C([O-])CCc1nnc(Br)n1-c1ccc(C2CC2)c2ccccc12.[Na+] [Compound 1c, Sodium 3-(5-bromo-4-(4-cyclopropylnaphth-1-yl)-4H-1,2,4-triazol-3-yl)propionate]	–	2.4 ± 0.15 µM	three
O=C([O-])CCc1nnc(I)n1-c1ccc(C2CC2)c2ccccc12.[Na+] [Compound 1d, Sodium 3-(4-(4-cyclopropylnaphth-1-yl)-5-iodo-4H-1,2,4-triazol-3-yl)propionate]	158 °C (dec.)	8.8 ± 1 µM	–
COc1nnc(CCC(=O)[O-])n1-c1ccc(C2CC2)c2ccccc12.[Na+] [Compound 1e, Sodium 3-(4-(4-cyclopropylnaphth-1-yl)-5-methoxy-4H-1,2,4-triazol-3-yl)propionate]	133 °C (dec.)	> 100 µM	–
CCOc1nnc(CCC(=O)[O-])n1-c1ccc(C2CC2)c2ccccc12.[Na+] [Compound 1f, Sodium 3-(4-(4-cyclopropylnaphth-1-yl)-5-ethoxy-4H-1,2,4-triazol-3-yl)propionate]	101.5 °C (dec.)	9.1 ± 1.2 µM	–
O=C([O-])CCc1nnc(Br)n1-c1cccc2ccccc12.[Na+] [Compound 1g, Sodium 3-(5-bromo-4-(naphth-1-yl)-4H-1,2,4-triazol-3-yl)propionate]	182 to 184 °C	10.5 ± 1.4 µM	–
Cc1ccc(-n2c(Br)nnc2CCC(=O)[O-])c2ccccc12.[Na+] [Compound 1h, Sodium 3-(5-bromo-4-(4-methylnaphth-1-yl)-4H-1,2,4-triazol-3-yl)propionate]	155 °C (dec.)	12.6 ± 1.6 µM	–
CCc1ccc(-n2c(Br)nnc2CCC(=O)[O-])c2ccccc12.[Na+] [Compound 1i, Sodium 3-(5-bromo-4-(4-ethylnaphth-1-yl)-4H-1,2,4-triazol-3-yl)propionate]	198 °C (dec.)	8.4 ± 0.98 µM	–

Now from value to molecule:

melting point	IC50 (human URAT1)	Fold more potent than parent lesinurad (URAT1 inhibition) (human URAT1)	Structure (SMILES)
183 °C (dec.)	8.3 ± 1.1 µM	–	CCCc1ccc(-n2c(Br)nnc2CCC(=O)[O-])c2ccccc12.[Na+] [Compound 1j, Sodium 3-(5-bromo-4-(4-n-propylnaphth-1-yl)-4H-1,2,4-triazol-3-yl)propionate]
194 °C (dec.)	1.1 ± 0.21 µM	–	CC(C)c1ccc(-n2c(Br)nnc2CCC(=O)[O-])c2ccccc12.[Na+] [Compound 1k, Sodium 3-(5-bromo-4-(4-isopropylnaphth-1-yl)-4H-1,2,4-triazol-3-yl)propionate]
211 °C (dec.)	36.6 ± 5.3 µM	–	COc1ccc(-n2c(Br)nnc2CCC(=O)[O-])c2ccccc12.[Na+] [Compound 1l, Sodium 3-(5-bromo-4-(4-methoxynaphth-1-yl)-4H-1,2,4-triazol-3-yl)propionate]
194 °C (dec.)	11.2 ± 1.3 µM	–	CCOc1ccc(-n2c(Br)nnc2CCC(=O)[O-])c2ccccc12.[Na+] [Compound 1m, Sodium 3-(5-bromo-4-(4-ethoxynaphth-1-yl)-4H-1,2,4-triazol-3-yl)propionate]
204 °C (dec.)	0.85 ± 0.12 µM	–	O=C([O-])CCc1nnc(Br)n1-c1ccc(Br)c2ccccc12.[Na+] [Compound 1n, Sodium 3-(5-bromo-4-(4-bromonaphth-1-yl)-4H-1,2,4-triazol-3-yl)propionate]
–	0.61 ± 0.07 µM	–	O=C(O)CCc1nnc(Br)n1Cc1ccc(Br)c2ccccc12 [Compound 1o, Sodium 3-(5-bromo-4-((4-bromonaphth-1-yl)methyl)-4H-1,2,4-triazol-3-yl)propionate]
167 °C (dec.)	34.7 ± 4.9 µM	–	O=C([O-])CCc1nnc(Br)n1CCc1ccc(Br)c2ccccc12.[Na+] [Compound 1p, Sodium 3-(5-bromo-4-(2-(4-bromonaphth-1-yl)ethyl)-4H-1,2,4-triazol-3-yl)propionate]
–	0.23 ± 0.05 µM	31 fold	O=C([O-])CCCc1nnc(Br)n1Cc1ccc(Br)c2ccccc12.[Na+] [Compound 1q, Sodium 4-(5-bromo-4-((4-bromonaphth-1-yl)methyl)-4H-1,2,4-triazol-3-yl)butanoate]
146 to 149 °C	1.24 ± 0.17 µM	–	O=C([O-])CCCCc1nnc(Br)n1Cc1ccc(Br)c2ccccc12.[Na+] [Compound 1r, Sodium 5-(5-bromo-4-((4-bromonaphth-1-yl)methyl)-4H-1,2,4-triazol-3-yl)pentanoate]
